Here are results for seven compounds from ChEMBL document CHEMBL2331163, “Enhancement of the water solubility of flavone glycosides by disruption of molecular planarity of the aglycone moiety” (J Nat Prod, 2013).

Values after ≈ are worked out from the molar mass of the structure shown.

The nature of series [1]: Aqueous solubility of the compound in water after 2 days by HPLC analysis. Format: physicochemical.
The nature of series [2]: Lipophilicity, log P of the compound. The series is classed as physicochemical. To be noted: octanol/water.

As usually defined, the solubility is the concentration that dissolves in the medium under given conditions. Broadly, the logP is a log measure of how a compound divides between an organic and an aqueous phase. A low value points to a more hydrophilic compound. Take `C[C@@H]1O[C@@H](O[C@H]2[C@H](Oc3cc(O)c4c(=O)c(Br)c(-c5ccc(O)cc5)oc4c3)O[C@H](CO)[C@@H](O)[C@@H]2O)[C@H](O)[C@H](O)[C@H]1O`: the solubility at 48 h in series [1] was greater than 100 mg/mL. The lipophilicity (logP) in series [2] is 0.93.
With `COc1ccc(-c2oc3cc(O[C@@H]4O[C@H](CO[C@@H]5O[C@@H](C)[C@H](O)[C@@H](O)[C@H]5O)[C@@H](O)[C@H](O)[C@H]4O)cc(O)c3c(=O)c2Br)cc1`, the solubility at 48 h in series [1] worked out at 13.8 mg/mL (≈ 20.6 mM). In series [2], this compound gave a lipophilicity (logP) of 1.17.
For `COc1ccc(-c2oc3cc(O[C@@H]4O[C@H](CO[C@@H]5O[C@@H](C)[C@H](O)[C@@H](O)[C@H]5O)[C@@H](O)[C@H](O)[C@H]4O)cc(O)c3c(=O)c2O)cc1O`, in that order: 0.0056 mg/mL (≈ 0.00897 mM) and 0.06.
For `COc1ccc(-c2oc3cc(O[C@@H]4O[C@H](CO[C@@H]5O[C@@H](C)[C@H](O)[C@@H](O)[C@H]5O)[C@@H](O)[C@H](O)[C@H]4O)cc(O)c3c(=O)c2Cl)cc1O`, in that order: 231 mg/mL (≈ 359 mM) and 0.44.
`COc1ccc(-c2oc3cc(O[C@@H]4O[C@H](CO[C@@H]5O[C@@H](C)[C@H](O)[C@@H](O)[C@H]5O)[C@@H](O)[C@H](O)[C@H]4O)cc(O)c3c(=O)c2Br)cc1O` gave a solubility at 48 h in series [1] of 214 mg/mL (≈ 311 mM). In series [2], this compound came in with a logP of 0.61.
The corresponding values for `COc1ccc(-c2cc(=O)c3c(O)cc(O[C@@H]4O[C@H](CO[C@@H]5O[C@@H](C)[C@H](O)[C@@H](O)[C@H]5O)[C@@H](O)[C@H](O)[C@H]4O)cc3o2)cc1` [ACACIIN] are 0.0046 mg/mL (≈ 0.00776 mM) and 0.84.
Consider `C[C@@H]1O[C@@H](O[C@H]2[C@H](Oc3cc(O)c4c(=O)cc(-c5ccc(O)cc5)oc4c3)O[C@H](CO)[C@@H](O)[C@@H]2O)[C@H](O)[C@H](O)[C@H]1O` [RHOIFOLIN], for which the solubility at 48 h in series [1] came out at 0.114 mg/mL (≈ 0.197 mM). The same compound showed a lipophilicity (logP) in series [2] of 0.71.
